Results from patent US7294755B1 (priority 1997, dated 2007).
“And” between values parts separate entries of the source, which are not always exact repeats. Identical values can stand only once.

What was measured:
[1] = test system: testicular cells within the seminiferous tubules; assay: In vivo transduction of male germ cells using a viral vector (Example 14); parameters: species or system C57BL/6J mice; details: 4 μg/gm body wt IP, 44 days prior to viral infection
Text: A retroviral vector was used to transduce (genetically alter or modify) male germ cells of mice in vivo. Specifically, a pseudo-typed HIV-derived viral vector (L. Naldini et al., In vivo gene delivery and stable transduction of nondividing cells by a Lentiviral vector, Science 272:263-67 [1996]), was used, as modified by Carlos Lois to express Green Flourescent Protein (GFP) instead of the LacZ reporter gene, under the transcriptional control of the CMV promoter (HR′GFP).
Recipient C57BL/6J mice were treated with busulfan 44 days prior to viral infection. C57BL/6J male mice were injected intraperitoneally with 0.1 ml busulfan at a concentration of 1 mg/ml. The dose was 4 μg busulfan/gm body wt. One pretreated mouse was anesthetized with Avertin (0.017 mls/gm body wt.), and a ventral midline incision was made and the right testis exposed.
The vas efferentia were dissected away from the fat, and ten microlitres of HIV-derived GFP vector, HR′GFP, at a titer of 1×10^9 particles/ml were injected into the seminiferous tubules of the right testis via the vas efferens of a busulfan-treated C57 BL/6J mouse. Injection was done with a quartz glass micropipette attached to a Picospritzer II. The Picospritzer was set at 80 psi and gave 1 second bursts upon manual depression of a foot pedal. […]

male germ cells = assay: In vivo transduction of male germ cells followed by natural matings, transgenic progeny by PCR and Southern blot; parameters: species or system C57/B1/6J mice; details: IP 4 μg/gm body wt before in vivo transduction
[2] = test system: male germ cells in the testis; details: mice, cited from earlier work
[3] = test system: male germ cells of the testis; assay: Depopulating the recipient testis of male germ cells, histologic analysis; type: in vivo, C57BL/6J mice; details: two months after treatment
Experimental: Comparison of Depopulating Treatments. Eight-week-old C57BL/6J mice were allowed to acclimatize for a few days and then were assigned to one of the following three treatment groups. They received: (1) 400 Rad gamma irradiation; (2)4 μg/g body weight of busulfan (1,4-butanediol dimethanesulphonate; Myleran, Glaxo Wellcome); or (3) a combination treatment of busulfan (4 μg/g body wt) followed one week later by 400 Rad of gamma irradiation (“busulfan/400 Rad” treatment). A fourth group of untreated C57BL/6J mice of the same age as the treatment groups was used as a control. There were 24 mice in each treatment group, and 3 mice were sacrificed at each of the following time intervals after treatment: 5 hours, 24 hours, 48 hours, 72 hours, 1 week, 2 weeks, I month and 2 months after treatment. […]
Delivery of an Alkylating Agent to Recipient Vertebrates. The male mice receiving busulfan received a dose of 4 μg busulfan per g body wt. The busulfan was first dissolved 8 mg/mL in 100% dimethyl sulfoxide (DMSO) then, immediately before injection, was diluted 1:1 in phosphate buffered saline, pH 7.4. The mice were injected with the diluted busulfan solution intraperitoneally. Irradiation Treatment of Recipient Vertebrates. For the gamma irradiation treatment, mice were anesthetized with 0.017 mL/g body wt. of 2.5% Avertin. Gamma irradiation was specifically directed to the testis in the following manner. Each mouse was placed in a lead chamber with only the testis and lower abdomen exposed through elliptical holes to the irradiating source (^137Cs Gammacell 40 irradiator [Nordion]). There were six aligned holes in the floor and roof of the chamber through which the gamma radiation passed unobstructed. After irradiation the animals were allowed to recover from the anesthesia on a warm heating pad or water bed until they regained consciousness. Histology. At selected time points, mice from each treatment group were euthanized, and testicular tissues to be examined were fixed in 10% formalin in PBS, pH 7.4, at 4° C. for 24 hours. Small slits in the testis capsule were made to allow penetration of the fixative. Fixed samples were washed four times with PBS, and embedded in paraffin using a Tissue Tek-II tissue processor (MET). Sections of 8 μm thickness were cut, stained with haemotoxylin and eosin (H&E), and mounted with Aquamount (Lerner Laboratories) on glass slides with coverslips. The sections were viewed on a Zeiss or Olympic light microscope with a 40× objective lens (total magnification 400×). Quantitative Histologic Analysis. Quantitative data were collected from the testes of two animals for each of the treatment groups at two months after treatment. (Table 2). For the control group only one mouse was used. The seminiferous tubules in a single section were counted using a 5× objective on a Zeiss light microscope (50× total magnification). Individual seminiferous tubules were examined at 400× total magnification. Seminiferous tubules were considered severely damaged if hardly any cells remained in the tubule, and the tubule consisted of a basement membrane with a single layer of cells, mostly spermatogonia, lying along the basement membrane. Moderately damaged tubules were tubules, in which some of the spermatogenic layers close to the lumen were partially sloughed off. Spermatozoan heads were counted in the tubules and averaged over the total number of tubules counted. Results of Histological Analysis. Obvious histological changes were not seen in the testis until two weeks after treatment. (Data no shown). […] A few Sertoli cell nuclei and spermatogonia were detectable in the periphery along the basement membrane. […] Some spermatids and spermatozoa were seen as well as a few spermatocytes.

testis germ cells = assay: Busulfan depopulation of testis before microinjection (Example 15); type: in vivo, mice; details: IP 4 μg/g body wt.
Experimental: The method of delivery (Winston, R. M. L., Microsurgical reanastomosis of the rabbit oviduct and its functional and pathological sequelae, Brit. J. Obstet. Gynaecol. 82:513-522 ([1975]) of viral particles into a single vas efferens, and thence to the seminiferous tubules, was first optimized in several mice (FIGS. 1a-1d). The mice were treated with busulfan (Myleran: Glaxo Wellcome) 14 days before microsurgery to maximize the chance of viral particles gaining access to spermatogonia, which lie on the basement lamella of the tubules. Busulfan, an alkylating cytotoxic agent, depopulates the testis (Bucci, L. and Meistrich, M., Effects of busulfan on murine spermatogenesis: cytotoxicity, sterility, sperm abnormalities, and dominant lethal mutations, Mut. Res. 176:259-268 [1987]). […] This implies that stem cells remain viable and can repopulate the testis. Stem cell spermatogonia are known to be resistant to insults, often surviving when other germ cell types are destroyed (Huckins, C. & Oakberg, W. F., Morphological and quantitative analysis of spermatogonia in mouse testes using whole mounted seminiferous tubules. II. The irradiated testes, Anat. Rec. 192:529-42 [1978]).

CS(=O)(=O)OCCCCOS(C)(=O)=O [Busulfan, 1,4-butanediol dimethanesulphonate]
mature spermatozoa in testis [1]: Very few mature spermatozoa were present | effect of pre-treatment on transduction of spermatogonia (male germ cells): enhanced the transduction of spermatogonia | depletion of male germ cells ([2]; 13 mg-40 mg/kg body wt.): deplete male germs cells in the testis | duration of azoospermia after treatment ([2]; doses over 30 mg/kg body weight): up to 56 days | Total No. Sperm heads ([3]; in 50 tubules): 957 and 764 | Average No. sperm heads/tubule [3]: 19 and 15 | depopulation of seminiferous tubules, comparison of treatment groups [3]: damage to the spermatogenic process | Moderately damaged tubules, percent of tubules counted ([3]; one animal per line): 7% and 3% | No. Moderately damaged (seminiferous tubules) ([3]; one animal per line): 5 and 2 | No. Severely damaged (seminiferous tubules) ([3]; one animal per line): 1 (1%) and 3 | Severely damaged tubules, percent of tubules counted ([3]; one animal per line): 1 (1%) and 10% | elimination of germ cells from the tubules (testis germ cells): many of the spermatocytes, spermatids and spermatozoa were eliminated from the tubules | recovery of testis and fertility (testis germ cells): the testis recovered three to four months afterward and fertility was restored
